Data published in ChEMBL document CHEMBL1135121, “Design and synthesis of some new pyranoxanthenone aminoderivatives with cytotoxic activity” (Bioorg Med Chem Lett, 2002).

How the values were obtained:
A549 = assay: Inhibitory concentration of compound against proliferation of lung carcinoma A549 cell line; assay type: functional, cell-based; settings: Homo sapiens
Calf thymus DNA = assay: In vitro calf thymus DNA binding affinity by ethidium bromide displacement; assay type: nucleic-acid assay, Bos taurus
HT-29 [1] = assay: Inhibitory concentration of compound against proliferation of colon carcinoma HT-29 cell line; assay type: functional, cell-based; settings: Homo sapiens
L1210 = assay: Inhibitory concentration of compound against proliferation of murine leukemia L1210 cell line; assay type: functional, cell-based; settings: Mus musculus
Nucleic Acid = assay: In vitro DNA binding affinity for calf thymus DNA was determined using ethidium bromide displacement assay; Not detected; assay type: nucleic-acid assay, Bos taurus
HT-29 [2] = assay: Cell-cycle-phase distribution of HT-29 cell-cultures exposed to 10 uM concentration of compound for 22 hr in G0/G1 phase; assay type: functional, Homo sapiens
HT-29 [3] = assay: Cell-cycle-phase distribution of HT-29 cell-cultures exposed to 10 uM concentration of compound for 22 hr in G2/M phase; assay type: functional, Homo sapiens
HT-29 [4] = assay: Cell-cycle-phase distribution of HT-29 cell-cultures exposed to 10 uM concentration of compound for 22 hr in S phase; assay type: functional, Homo sapiens

Compound | IC50 (A549) | EC50 (Calf thymus DNA) | IC50 (HT-29 [1]) | IC50 (L1210) | EC50 (Nucleic Acid) | Activity (HT-29 [2]) | Activity (HT-29 [3]) | Activity (HT-29 [4])
CN(C)CCNc1cc2c(c3oc4ccccc4c(=O)c13)C=CC(C)(C)O2 | 23 µM | 89 µM | 8 µM | 7.1 µM |  |  |  | 
COc1cc2c(c3c1c(=O)c1ccccc1n3C)C=CC(C)(C)O2 [ACRONINE] | > 100 µM | 82 µM | > 100 µM | 27 µM |  |  |  | 
CCN(CC)CCNCc1cc2c(c3oc4ccccc4c(=O)c13)C=CC(C)(C)O2.O=C(O)/C=C/C(=O)O | 11 µM | 42 µM | 1.7 µM | 2 µM |  | 79.7 | 7.77 | 12.53
O=C1c2c(O)ccc(O)c2C(=O)c2c(NCCNCCO)ccc(NCCNCCO)c21 [MITOXANTRONE] | 0.3 µM | 0.4 µM | 8 µM | 0.04 µM |  |  |  | 
CN(C)CCNCc1cc2c(c3oc4ccccc4c(=O)c13)C=CC(C)(C)O2 | 44 µM | 74 µM | 8.8 µM | 4.1 µM |  |  |  | 
CN(C)CCNC(=O)c1cc2c(c3oc4ccccc4c(=O)c13)C=CC(C)(C)O2 | 90 µM | 197 µM | 12 µM | 16 µM |  |  |  | 

Further lines, with some results ahead:

IC50 (A549) | EC50 (Calf thymus DNA) | IC50 (HT-29 [1]) | IC50 (L1210) | EC50 (Nucleic Acid) | Compound | Activity (HT-29 [2]) | Activity (HT-29 [3]) | Activity (HT-29 [4])
> 100 µM | 88 µM | 42 µM | 8.4 µM |  | CCN(CC)CCNc1cc2c(c3oc4ccccc4c(=O)c13)C=CC(C)(C)O2 |  |  | 
30 µM |  | 23 µM | 5.8 µM | Not detected | CN(C)CCNc1c2c(cc3oc4ccccc4c(=O)c13)OC(C)(C)C=C2.Cl |  |  | 
51 µM | 100 µM | 40 µM | 9 µM |  | CCN(CC)CCNC(=O)c1c2c(cc3oc4ccccc4c(=O)c13)OC(C)(C)C=C2 | 61.24 | 37.7 | 1.06
25 µM |  | 8 µM | 5.1 µM | Not detected | CCN(CC)CCNc1c2c(cc3oc4ccccc4c(=O)c13)OC(C)(C)C=C2.Cl |  |  | 
60 µM | 150 µM | 30 µM | 10 µM |  | CCN(CC)CCNC(=O)c1cc2c(c3oc4ccccc4c(=O)c13)C=CC(C)(C)O2 |  |  | 
8 µM | 30 µM | 2 µM | 2 µM |  | CCN(CC)CCNCc1c2c(cc3oc4ccccc4c(=O)c13)OC(C)(C)C=C2.Cl | 69.92 | 8.86 | 21.22
25 µM | 39 µM | 6.4 µM | 4 µM |  | CN(C)CCNCc1c2c(cc3oc4ccccc4c(=O)c13)OC(C)(C)C=C2 |  |  | 
57 µM | 107 µM | 60 µM | 12 µM |  | CN(C)CCNC(=O)c1c2c(cc3oc4ccccc4c(=O)c13)OC(C)(C)C=C2 |  |  | 
